Laboratory results published in US7417144B2, “Factor Xa inhibitors” (Hoffman-La Roche Inc., priority 2005, dated 2008).

The compounds below were run against T1, human factor Xa (Homo sapiens, UniProt P00742) (assay: Factor Xa chromogenic peptide substrate (S-2222) assay). Details: apparent Ki from IC50 by Cheng-Prusoff; enzyme 3 nM, substrate S-2222, pH 7.8, room temperature.
T1 construct: purchased Enzyme Research Laboratories
Format: biochemical
Description: Factor Xa activity was measured spectrophotometrically in microtiter plates in a final volume of 150 μl using the following conditions: Inhibition of human factor Xa (Enzyme Research Laboratories) was tested at an enzyme concentration of 3 nM using the chromogenic substrate S-2222 (Chromogenix AB, Mölndal, Sweden) at […]. The reaction kinetics of the enzyme and the substrate were linear with both time and the enzyme concentration. The inhibitors were dissolved in DMSO and tested at various concentrations up to 100 μM. The inhibitors were diluted using HNPT buffer consisting of HEPES 100 mM, NaCl 140 mM, PEG 6000 0.1% and Tween 80 0.02%, pH 7.8. The cleavage of S-2222 by human factor Xa was followed at 405 nm for 5 minutes at room temperature. The velocity of the reaction was determined by the autoreader from the slope of the linear regression fit to 7 time points (1 minute). The initial velocity for each inhibitor concentration was determined by the slope of at least 4 time points in the linear phase by a linear regression fit […]. Apparent dissociation constants Ki were calculated according to Cheng and Prusoff [Cheng, Y. C.; Prusoff, W. H. Relationship between the inhibition constant (Ki) and the concentration of the inhibitor that causes 50 percent inhibition (IC50) of an enzyme reaction. Biochem. Pharmacol. 1973, 22, 3099-3108.] based on the IC50 and the respective Km, determined previously (Ki=IC50/(1+S/Km)). The Km for the substrate used was determined under the conditions of the test with at least 5 substrate concentrations ranging from 0.5 to 15 times Km. [Lottenberg R, Hall J A, Blinder M, Binder E P, Jackson C M., The action of thrombin on peptide p-nitroanilide substrates. Substrate selectivity and examination of hydrolysis under different reaction conditions. Biochim Biophys Acta. 1983 Feb. 15; 742(3):539-57]. According to Eadie [Eadie G.S. The inhibition of cholinesterase by physostigmine and prostigmine. J. Biol. Chem. 1942, 146, 85-93.], the Km for S-2222 amounted to 613 μM.

T1 sequence (P00742 235-488 limits assumed): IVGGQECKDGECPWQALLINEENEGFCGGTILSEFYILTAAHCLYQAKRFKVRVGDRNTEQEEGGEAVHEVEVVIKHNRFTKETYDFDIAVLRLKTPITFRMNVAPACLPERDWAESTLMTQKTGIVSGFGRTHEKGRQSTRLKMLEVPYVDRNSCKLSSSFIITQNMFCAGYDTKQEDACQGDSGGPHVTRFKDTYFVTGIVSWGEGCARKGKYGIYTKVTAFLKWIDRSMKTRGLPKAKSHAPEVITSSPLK
T1 sequence (P00742 41-179 partner limits assumed): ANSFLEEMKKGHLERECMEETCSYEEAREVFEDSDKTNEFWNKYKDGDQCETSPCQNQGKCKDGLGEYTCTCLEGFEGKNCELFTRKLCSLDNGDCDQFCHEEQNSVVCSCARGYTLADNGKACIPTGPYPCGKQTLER

SMILES | Ki [nM]
Cn1ncc2c1CN(C(=O)Nc1ccc(Cl)cn1)[C@H]2C(=O)Nc1ccc(-n2ccccc2=O)cc1F [Example 3, (R)-1-Methyl-4,6-dihydro-1H-pyrrolo[3,4-c]pyrazole-4,5-dicarboxylic acid 5-[(5-chloro-pyridin-2-yl)-amide]4-{[2-fluoro-4-(2-oxo-2H-pyridin-1-yl)-phenyl]-amide}] | 19
O=C(Nc1ccc(-n2ccccc2=O)cc1F)C1Cc2cccnc2N1C(=O)Nc1ccc(Cl)cc1 (stereo not drawn) [Example 16, 2,3-Dihydro-pyrrolo[2,3-b]pyridine-1,2-dicarboxylic acid 1-[(4-chloro-phenyl)-amide]2-{[2-fluoro-4-(2-oxo-2H-pyridin-1-yl)-phenyl]-amide}] | 51
O=C(Nc1ccc(-n2ccccc2=O)cc1F)C1Cc2cccnc2CN1C(=O)Nc1ccc(Cl)cc1 (stereo not drawn) [Example 18, 5,8-Dihydro-6H-[1,7]naphthyridine-6,7-dicarboxylic acid 7-[(4-chloro-phenyl)-amide]6-{[2-fluoro-4-(2-oxo-2H-pyridin-1-yl)-phenyl]-amide}] | 12
